The record followed here is US4322420A, “Method of using 4-anilinoquinazoline derivatives as analgesic and anti-inflammatory agents” (Sankyo Company Limited, priority 1978, dated 1982).

Read-outs that look alike come from different tables or passages of the source.

The test system of assay [1] is bradykinin-induced nociceptive stimulus. The experiment in a line: Test for analgesic activity (bradykinin-induced nociceptive stimulus, oral administration). It counts as in vivo, female Hartley guinea pigs. The conditions noted are these: Cavia porcellus, read-out: ID50 Analgesic Activity. On the procedure: This test employs a bradykinin-induced nociceptive stimulus and is a partially modified version of the test described by Deffenu [J. Pharm. Pharmac. […] The test animals were female Hartley guinea pigs having a body weight of from 350 g to 400 g. The guinea pigs were divided into groups, each group containing from 5 to 10 animals. The test animals were cannulated into the carotid artery retrogradely under the anesthesia induced by intraperitoneal injection of 20 mg/kg of pentobarbital. The guinea pigs were allowed to recover from the anesthesia for at least 3 hours before the tests commenced.
The test compounds listed in the following Table 1 were administered orally. Immediately before administration of each test compound and then 15, 30, 60, 90 and 120 minutes after administration, each guinea pig was administered with 0.5 μg of bradykinin through the cannula. Turning of the head or twisting of the front legs upon injection was taken as a sign of nociceptive response. The test compounds were administered at various doses and the inhibition rate was determined accordingly.
(§1) For both of the above tests, the ID50 was calculated by the method of Litchfield and Wilcoxon [J. Pharmacol. Exptl. Therap.

For assay [2], the system named is carrageenin-induced oedema of the right hind paw. Nature of the assay: Test for anti-inflammatory activity (carrageenin-induced paw oedema, oral administration). It counts as in vivo, Male Wistar-Imamichi rats. The conditions noted are these: Rattus norvegicus, read-out: ID50 Anti-inflammatory Activity. On the procedure: Male Wistar-Imamichi rats, each weighing approximately 150 g, were used in these experiments and were divided into groups, each containing 5 animals. Each of the test compounds listed in Table 1 was administered orally, at various doses, to the rats and then, 30 minutes after oral administration,0.05 ml of a 1% w/v carrageenin suspension was subcutaneously injected into the sole of the right hind paw to induce oedema. The volume of the paw was measured both before and 3 hours after injection of the carrageenin by the method of Winder et al [Arch. Int. Pharmacodyn. […] The difference between the volume of the paw before and after injection was defined as the oedema intensity.
as §1
For orientation: The carrageenan paw model is a standard test of acute inflammation.

Where [3] appears, read: per os, guinea pigs, 0.5 μg bradykinin via carotid cannula before and 15, 30, 60, 90 and 120 min after dosing, Litchfield and Wilcoxon.
Setting [4] is: per os, rats, 0.05 ml of 1% w/v carrageenin 30 min after dosing, paw volume 3 hours after injection, Litchfield and Wilcoxon.

Regarding `Cc1cccc(Nc2ccccc2C(=O)O)c1C` [Mefenamic acid, reference compound], the ED50 in assay [1] (setting [3]) was 72 mg/kg; in assay [2] (setting [4]), 50 mg/kg.

Take `CN(c1ccccc1)c1ncnc2cc(Cl)ccc12` [Compound 55, 7-Chloro-4-(N-methylanilino)quinazoline]: the ED50 in assay [1] (setting [3]) is 50 mg/kg; in assay [2] (setting [4]), 36 mg/kg.

For the molecule `FC(F)(F)c1ccc2c(Nc3ccccc3)ncnc2c1` [Compound 17, 4-Anilino-7-trifluoromethylquinazoline], the results for the ED50 in assay [1] (setting [3]) and in assay [2] (setting [4]) were 16.5 mg/kg and 20 mg/kg, respectively.

Take `CN(c1ccccc1)c1ncnc2cc(C(F)(F)F)ccc12` [Compound 73, 4-(N-Methylanilino)-7-trifluoromethylquinazoline]: the values for the ED50 in assay [1] (setting [3]) and in assay [2] (setting [4]) were 31 mg/kg and 15.5 mg/kg, respectively.

Turning to `Clc1ccc2c(Nc3ccccc3)ncnc2c1` [Compound 5, 4-Anilino-7-chloroquinazoline], the ED50 in assay [1] (setting [3]) turned out to be 25 mg/kg; in assay [2] (setting [4]), 28 mg/kg.

For the molecule `CC(=O)Oc1ccccc1C(=O)O` [Aspirin, reference compound], the ED50 in assay [1] came out at 280 mg/kg; in assay [2], 145 mg/kg.
